From US6440978B2, “Therapeutic agent for dermatitis” (Nippon Zoki Pharmaceutical Co., Ltd., priority 2000, dated 2002)

How the values were obtained:
[1] = tested on: antigen-induced swelling reaction in a mouse ear; assay: Suppressive action against antigen-induced swelling reaction in a mouse ear; type: in vivo, BALB/c female mice
Protocol: (§1) Seven week old BALB/c female (SPF) mice of were selected as subjects. According to a method of Tanaka, et al. (Allergy, 46, pages 42-48(1997)), egg white albumin (final concentration: 2 μg/mL) and aluminum hydroxide gel (final concentration: 10 mg/mL) were suspended in physiological saline and 0.5 mL of the suspension was administered to effect intraperitoneal sensitization on the first day of the test. On the 14th day of the test, an additional sensitization was carried out under the same conditions. Further, on the 28th day of the test, 25 μL of egg albumin (a 20 μg/mL solution in physiological saline) was intradermally administered to the right ear of a mouse to induce a swelling reaction.
(§2) This swelling reaction reached its peak at 4 hours after the challenge by the antigen. Even after 24 to 48 hours, a significant swelling reaction was noted as compared with the control in which antigen was merely challenged (not sensitized). […] On the contrary, the swelling from 24 to 48 hours after the challenge is thought to be the so-called delayed-type swelling reaction accompanied by infiltration of eosinophils, neutrophils and lymphocytes. In addition, a flare-up reaction having a peak at 24 hours after the challenge appeared on the ear of the antigen-induced site. Like swelling, flare-up is an important symptom of inflammation. Although the mechanism of the flare-up reaction is ambiguous, it may be a flare-up reaction of a delayed type in view of the time course of its expression. As such, this model animal in which the inflammation of both immediate and delayed types are induced is appropriate as a model animal for atopic dermatitis. In the following experiment, the effectiveness of the therapeutic agent for dermatitis according to the present invention was tested using the said model animal.
Each of a vehicle (control) and a test agent (containing the compound of the present invention or a positive control) was applied to the antigen-induced site (right auricle) of a mouse. A swelling reaction was induced in accordance with Example 2 at 2 hours before and 4 hours after the challenge. After the challenge, the thickness of the swelling induced ear was measured by a Dial Thickness Gauge (manufactured by Ozaki Seisakusho). The intensity of the reaction was expressed in terms of an increase in the auricle thickness by deducting the thickness (early value) measured before the challenge from the thickness of the swelling induced ear. The suppression rate of the test drug for ear swelling was calculated by the following formula:
Suppression Rate (%)=100 ×[(Ear Thickness Increase of Vehicle-Only-Control)—(Ear Thickness Increase of the Test Group)]/[(Ear Thickness Increase of the Vehicle-Only-Control)—(Ear Thickness Increase of the Challenge-Only-Group)]

[2] = tested on: antigen-induced flare-up reaction in a mouse; assay: Suppressive action against antigen-induced flare-up reaction in a mouse; type: in vivo, BALB/c female mice; details: 0.12% ointment
Protocol: as §1, §2
Each of a vehicle (control) and an agent for the test (the therapeutic agent for dermatitis according to the present invention or a positive control) was applied to the antigen-induced site (right auricle) of a mouse to induce a swelling reaction in accordance with Example 2 at 2 hours before and 4 hours after the challenge. The right ear was observed by naked eye and the degree of flare-up was scored according to the following standard:
1: in such a degree that a flare-up was confirmed, the color is clear red or pale red and the size was small
2: between score 3 and score 1
3: color of the flare-up was clearly red and the size of the flare-up was big

ear of a normal mouse = assay: Influence of repeated application on the ear thickness of a normal mouse; type: in vivo
Protocol: The therapeutic agent for dermatitis according to the present invention or the positive control (steroid preparation) was applied twice daily to the right ear of a normal mouse for a total of nine times and, 2 hours after the final application, the thickness of the ear was measured.

[3] = Table 2, 1% ointment, 24 hr after challenge
[4] = Table 2, 3% ointment, 24 hr after challenge
[5] = Table 1, 0.12% ointment, 1 hr after challenge
[6] = Table 1, 0.12% ointment, 8 hr after challenge
[7] = Table 1, 0.12% ointment, 24 hr after challenge
[8] = Table 1, 0.12% ointment, 48 hr after challenge
[9] = Table 2, 0.12% ointment, 24 hr after challenge

**Q.** For `Nc1ccc2c(=O)n(Cc3ccccc3Cl)c(=O)n(-c3ccccc3)c2n1` [Compound 2, 7-amino-3-(2-chlorobenzyl)-1,2,3,4-tetrahydro-1-phenylpyrido[2,3-d]pyrimidin-2,4-dione], which “Ear Thickness Increase at 4 hr after Challenge” value ([1]; Table 2, 1% ointment) is on record?
**A.** 19.5 ± 3.2 × 0.01 mm

**Q.** What about the “Suppression Rate of ear thickness increase at 4 hr after Challenge” value ([1]; Table 2, 1% ointment) of the same compound?
**A.** (22.2%)

**Q.** And the “Ear Thickess Increase at 24 hr after Challenge” value (“Ear Thickess Increase at 24 hr” below) [1, 3]?
**A.** 11.8 ± 2.6 × 0.01 mm

**Q.** And the “Suppression Rate of ear thickness increase at 24 hr after Challenge” value [1, 3]?
**A.** (30.3%)

**Q.** And the “Ear Thickness Increase at 4 hr after Challenge” value ([1]; Table 2, 3% ointment)?
**A.** 19.3 ± 2.4 × 0.01 mm

**Q.** What about the “Suppression Rate of ear thickness increase at 4 hr after Challenge” value ([1]; Table 2, 3% ointment) of the same compound?
**A.** (23.1%)

**Q.** And the “Ear Thickess Increase at 24 hr” value [1, 4]?
**A.** 8.0 ± 1.4 × 0.01 mm

**Q.** What about the “Suppression Rate of ear thickness increase at 24 hr after Challenge” value [1, 4] of the same compound?
**A.** (54.8%)

**Q.** `CCCCC(=O)O[C@]1(C(=O)CO)[C@@H](C)C[C@H]2[C@@H]3CCC4=CC(=O)C=C[C@]4(C)[C@@]3(F)[C@@H](O)C[C@@]21C` [Positive Control, betamethasone valerate, reference compound] was tested. Which “Ear Thickness Increase at 1 hr after Challenge” value [1, 5] did it give?
**A.** 8.3 ± 0.7 × 0.01 mm

**Q.** And the “Suppression Rate of ear thickness increase at 1 hr after Challenge” value [1, 5]?
**A.** (45.5%)

**Q.** And the “Ear Thickness Increase at 4 hr after Challenge” value ([1]; Table 1, 0.12% ointment)?
**A.** 16.3 ± 2.0 × 0.01 mm

**Q.** And the “Suppression Rate of ear thickness increase at 4 hr after Challenge” value ([1]; Table 1, 0.12% ointment)?
**A.** (42.0%)

**Q.** What about the “Ear Thickness Increase at 8 hr after Challenge” value [1, 6] of the same compound?
**A.** 2.0 ± 1.2 × 0.01 mm

**Q.** And the “Suppression Rate of ear thickness increase at 8 hr after Challenge” value [1, 6]?
**A.** (49.7%)

**Q.** What about the “Ear Thickness Increase at 24 hr after Challenge” value [1, 7] of the same compound?
**A.** 5.0 ± 1.0 × 0.01 mm

**Q.** And the “Suppression Rate of ear thickness increase at 24 hr after Challenge” value [1, 7]?
**A.** (80.0%)

**Q.** And the “Ear Thickness Increase at 48 hr after Challenge” value [1, 8]?
**A.** 2.0 ± 1.0 × 0.01 mm

**Q.** What about the “Suppression Rate of ear thickness increase at 48 hr after Challenge” value [1, 8] of the same compound?
**A.** (100.0%)

**Q.** And the “Ear Thickness Increase at 4 hr after Challenge” value ([1]; Table 2, 0.12% ointment)?
**A.** 11.0 ± 0.6 × 0.01 mm

**Q.** And the “Suppression Rate of ear thickness increase at 4 hr after Challenge” value ([1]; Table 2, 0.12% ointment)?
**A.** (60.0%)

**Q.** What about the “Ear Thickess Increase at 24 hr” value [1, 9] of the same compound?
**A.** 6.3 ± 2.4 × 0.01 mm

**Q.** And the “Suppression Rate of ear thickness increase at 24 hr after Challenge” value [1, 9]?
**A.** (65.8%)

**Q.** And the “Suppression Rate of flare-up score at 4 hr after Challenge” value ([2]; 4 hr after challenge)?
**A.** (25.0%)

**Q.** What about the “Flare-up Score at 4 hr after Challenge” value ([2]; 4 hr after challenge, score 0-3) of the same compound?
**A.** 0.6 ± 0

**Q.** And the “Suppression Rate of flare-up score at 24 hr after Challenge” value ([2]; 24 hr after challenge)?
**A.** (40.0%)

**Q.** And the “Flare-up Score at 24 hr after Challenge” value ([2]; 24 hr after challenge, score 0-3)?
**A.** 1.5 ± 0.2

**Q.** And the “Ear Thickness” value (ear of a normal mouse; 0.12% ointment applied twice daily, nine times in total, 2 hours after final application)?
**A.** 18.3 ± 0.5 × 0.01 mm

**Q.** What about the “influence of repeated application on auricle thickness” value (ear of a normal mouse; positive control ointment, repeated application) of the same compound?
**A.** significantly reduced the auricle thickness
